Columns and labels:
[1] = system: PHA activated PBMC; assay: ELISA spot assay, number of cytokine producing cells; format: cell-based, human; settings: 10 μM
[2] = system: CD3+ T cells; assay: Viability by propidium iodide exclusion; format: cell-based, human
Procedure: For determination of cytokine protein levels, T-cells (1×10^6 cells in a volume of 1 ml) were activated by the addition of 10 ng PMA plus 0.5 μg ionomycin (both from Calbiochem, La Jolla, Calif.) and incubated in 24 well plates in the presence of 0 to 20 μM nucleoside for up to 48 h at 37° C. and 5% CO2 in a humidified incubator. Following activation, supernatants were analysed for cell-derived cytokine production. For proliferation and viability studies, the protocol as above was modified to a 96 well-plate format using 0.2×10^6 cells in a volume of 0.2 ml and activation with 2 ng PMA and 0.1 μg ionomycin. In separate experiments, 5×10^6 T cells in 2 ml were activated with 20 ng PMA plus 1 μg ionomycin. Here total RNA was isolated from T cells following 6-24 h incubation and analyzed by RT-PCR to determine mRNA levels of various cytokines and inflammatory mediators. […]
T cell proliferative responses were assessed by measuring [3H]-thymidine (1 μCi, ICN, Irvine, Calif.) incorporation for the last 16 h of each assay. Cells were harvested onto filters and DNA synthesis was measured following scintillation counting on a Wallac Betaplate counter (Perkin-Elmer/Wallac, Gaithersburg, Md.). Viability was assessed by propidium iodide (5 μg/ml) exclusion in untreated and nucleoside-treated human T cells stained with FITC-CD3 (Becton Dickinson, San Jose, Calif.). […]

SMILES: N=C(N)c1cn([C@@H]2O[C@H](CO)[C@@H](O)[C@H]2O)c2nc[nH]c(=O)c12 [ICN 10776, 7-β-D-ribofuranosyl-4-oxopyrrolo-[2,3-d]pyrimidine-5-carboxamidine]
- number of IL-2-producing cells ([1]; 24 h): dramatic fall
- number of IFNγ-producing cells ([1]; 48 h): dramatic fall
- number of IL-4 producing cells ([1]; 48 h): substantial increase
- number of IL-5 producing cells ([1]; 48 h): substantial increase
- viability of resting CD3+ T cells ([2]; 20 μM, 48 h incubation, decrease from 95%): 85%
- viability of PMA-ION activated CD3+ T cells versus no nucleoside ([2]; 0.2 to 20 μM, 8 h, 24 h, 48 h): no sign difference

— US6831069B2, “Pyrrolo[2,3-d]pyrimidine nucleoside analogs” (priority 1999, dated 2004)
